Measurements published in patent publication EP1932513A2, “Compounds for improving the visual appearance of the skin” (Henkel AG & Co. KGaA, priority 2006, dated 2008).

Experiments:
Proteasom = experiment: Proteasome activity (suc-LLVY-MCA hydrolysis) in lysate of treated fibroblasts; format: cell-based, menschlich
Experimental: (§1) Dermale Fibroblasten (isoliert aus menschlicher Vorhaut) wurden bei 37°C und 5 Vol.-% CO2 mit Dulbecco's Minimal Essential Medium High Glucose unter Zusatz von 1 Gew.-% Glutamax, 1 Gew.-% Penicillin/Streptomycin und 10 Gew.-% fetalem Kälberserum kultiviert. Zur UV-A Bestrahlung mittels eines Teilkörperbestrahlungshimmels Typ Sellamed 2000 (Dr. Sellmeier; Bestrahlungsspektrum: 340-400 nm, Maximum: 360-380 nm) wurden die Zellen in Petrischalen ausplattiert (ca. 3,8 x 10^4 Zellen/cm^2; zuzüglich 2 Tage Wachstum, danach noch subkonfluent), das Zellmedium abgesaugt, die Zellen einmal mit PBS gewaschen und die UV-A Bestrahlung anschließend in PBS durchgeführt (Dosierung über Zeitintervall bis zu 14min bei […]). Nach UV-A Bestrahlung und Entfernung des PBS wurden die Zellen wieder mit Zellmedium versetzt und bis zur Zellernte bei 37°C, 5 Vol.-% CO2 aufbewahrt. Nach Zelltrypsinierung und -schabung erfolgte unter Zusatz von hypotonem Salzpuffer (10 mM HEPES, 24 mM KCl, 10 mM MgCl2, pH 7,5) und Anwendung der Frier-Tau-Technik die Herstellung des Zelllysats. Nicht lysierte Zellen sowie Membranen und Zellkerne wurden durch zehnminütige Zentrifugation bei 14000 rpm und 4°C abgetrennt.
(§2) Getestete Substanzen: • Natriumascorbylphosphat (0,025 mg/ml), BASF, entsprechend einem Aktivsubstanzgehalt in der Testlösung von 0,0025 Gew.-% • Hypotaurin 0,25 (mg/ml), Siber Hegner (entsprechend einem Aktivsubstanzgehalt in der Testlösung von 0,025 Gew.-%) • Kombuchka (7,5 mg/ml), Sederma (entsprechend einem Aktivsubstanzgehalt in der Testlösung von 0,02 - 0,053 Gew.-%) • Glistin (0,5 mg/ml), Exsymol (entsprechend 4,5 - 5,5' 10^-4 Gew.-% Glutamylamidoethylindol in der Testlösung) • Gingkoselect Phytosome (0,15 mg/ml), Indena (entsprechend 0,9 - 1,8 · 10^-5 Gew.-% […]-Aktivsubstanz in der Testlösung), wird vom Hersteller als Antioxidans ausgelobt.
Die Behandlung der Fibroblasten mit Antioxidantien erfolgte wie unter 2.3.3. Das Zelllysat wurde mit einem Puffer, der Tris-HCl (pH=7,8 bei 37°C), KCI, Mg-Acetat, MgCl2 und Dithiothreitol enthält, versetzt. Nach Zugabe von 10µl einer 2mM Stammlösung von suc-LLVY-MCA (N-Succinyl-Leucin-Leucin-Valin-Tyrosin-4-Methyl-cumaryl-7-amid) erfolgte eine 30-minütige Inkubation bei 37°C. Anschließend wurde die Fluoreszenz des Hydrolyseprodukts MCA (4-Methyl-cumaryl-7-amid) am Fluorimeter bestimmt (Anregungswellenlänge: 390 nm, Detektionswellenlänge: 460nm) und die MCA-Konzentration unter Verwendung einer Standardreihe bestimmt.

Dermale Fibroblasten = experiment: Protein carbonyls in vitro (ELISA) in UV-A irradiated and non-irradiated fibroblasts; format: cell-based, menschlich; conditions: for durch UV-A-Bestrahlung induzierter Anstieg des Proteincarbonyl-Gehalts: summary in words of the fibroblast results
Experimental: as §1, §2
Fibroblasten wurden für 16 Stunden mit Antioxidantien-haltigem Medium versetzt. Nach UV-A Bestrahlung in PBS wurden die Fibroblasten anschließend wieder für 3 Stunden mit Antioxidantien-haltigem Medium versetzt und lysiert. Die Detektion der Proteincarbonyle erfolgte per ELISA Technik nach Buss et al. mit Veränderungen nach Sitte et al.. Das Zelllysat wurde mit Dinitrophenylhydrazin versetzt, und die gebildeten Hydrazone wurden mit Hilfe des primären Antikörpers Anti-Dinitrophenyl-Rabbit-IgG detektiert. Als sekundärer Antikörper wurde der Anti-Rabbit-IgG-Antikörper (Peroxidase-konjugiert) verwendet und die Menge des gebundenen, sekundären Antikörpers nach Entwicklung mit o-Phenylendiamin und Wasserstoffperoxid detektiert.

[1] = bestrahlt (UV-A), unbehandelt bestrahlt = 23,41, unbehandelt und unbestrahlt = 100 %
[2] = unbestrahlt, unbehandelt = 100 %
[3] = bestrahlt (UV-A), unbehandelt bestrahlt = 171,43, test concentrations: Natriumascorbylphosphat 0,025 mg/ml, Hypotaurin 0,25 mg/ml, Kombuchka 7,5 mg/ml, Glistin 0,5 mg/ml, Gingkoselect Phytosome 0,15 mg/ml

SMILES	Proteasomaktivität MW (%) (Proteasom; [1])	Proteasomaktivität MW (%) (Proteasom; [2])	Proteincarbonyl-Gehalt [%, relativ zum unbehandelten und unbestrahlten Zustand] (Dermale Fibroblasten; [3])	durch UV-A-Bestrahlung induzierter Anstieg des Proteincarbonyl-Gehalts (Dermale Fibroblasten)	Proteincarbonyl-Gehalt [%, relativ zum unbehandelten und unbestrahlten Zustand] (Dermale Fibroblasten; unbestrahlt, unbehandelt = 100)
NC(CCC(=O)O)C(=O)NCCc1c[nH]c2ccccc12 (stereo not drawn) [Glistin, Glutamylamidoethylindol]	24,94%	119,32%	139,96%	reduzieren	112,69%
NCCS(=O)O [Hypotaurin]	32,9%	144,37%	151,3%	reduzieren	128,32%
O=C1O[C@H]([C@@H](O)CO)C(O)=C1OP(=O)(O)O [Natriumascorbylphosphat]	33,36%	104,74%	124,18%	reduzieren	86,82%
